Assay [1] concerns the target T1, human glucocorticoid receptor (GR) complex (Homo sapiens, UniProt P04150).
T1 construct: made in house; host or cells: insect expression system (baculovirus lysate)
T1 sequence (P04150 1-777): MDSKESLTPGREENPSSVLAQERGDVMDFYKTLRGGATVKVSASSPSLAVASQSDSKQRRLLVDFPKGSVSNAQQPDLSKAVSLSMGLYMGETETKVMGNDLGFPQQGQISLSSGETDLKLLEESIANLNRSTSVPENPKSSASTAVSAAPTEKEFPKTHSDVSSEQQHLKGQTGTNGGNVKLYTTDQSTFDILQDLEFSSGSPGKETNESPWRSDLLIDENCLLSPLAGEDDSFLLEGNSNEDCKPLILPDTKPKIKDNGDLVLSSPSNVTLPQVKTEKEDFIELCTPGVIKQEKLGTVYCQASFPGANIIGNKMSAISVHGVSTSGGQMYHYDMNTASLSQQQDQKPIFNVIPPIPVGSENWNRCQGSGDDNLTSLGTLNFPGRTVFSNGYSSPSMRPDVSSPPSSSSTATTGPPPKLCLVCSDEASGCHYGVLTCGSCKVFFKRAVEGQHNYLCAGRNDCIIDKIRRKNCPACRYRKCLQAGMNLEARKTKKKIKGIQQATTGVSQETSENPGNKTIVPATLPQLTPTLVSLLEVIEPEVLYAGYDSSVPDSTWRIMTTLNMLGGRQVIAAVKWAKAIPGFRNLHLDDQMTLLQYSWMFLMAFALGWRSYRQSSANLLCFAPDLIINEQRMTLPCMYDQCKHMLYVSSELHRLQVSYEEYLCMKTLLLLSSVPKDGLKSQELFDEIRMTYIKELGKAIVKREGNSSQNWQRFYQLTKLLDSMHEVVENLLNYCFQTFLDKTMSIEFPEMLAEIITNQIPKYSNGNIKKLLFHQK
Put plainly: Glucocorticoid Receptor Competitive Binding Assay (fluorescence polarization, TAMRA-labeled dexamethasone probe). The following applies: qualitative statement; competition with TAMRA-labeled dexamethasone. In outline:
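Competition with TAMRA-dexamethasone for a human GR complex expressed in insect cells, read by fluorescence polarization. Buffer was 10 mM TES, 50 mM KCl, 20 mM Na2MoO4, 1.5 mM EDTA, 0.04% CHAPS, 10% glycerol, 1 mM DTT, pH 7.4.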

For the next assay, the system named is glucocorticoid receptor. Put plainly: Glucocorticoid Receptor Cell Assays (agonist activity in one or more of the above assays). Particulars: qualitative statement; assay not specified. Type of assay: cell-based. Here is the method:
B. Glucocorticoid Receptor Cell Assays
1. Induction of Aromatase in Fibroblasts (Cell Assay for Transactivation)
Dexamethasone, a synthetic ligand to the glucocorticoid receptor (GR), induces expression of aromatase in human foreskin fibroblast cells. The activity of aromatase is measured by the conversion of testosterone to estradiol in culture media.
On the day of the experiment, the media in the wells is replaced with fresh media. Cells are treated with test compounds to final concentrations of 10^−5 M to 10^−8 M, and testosterone to a final concentration of 300 ng/mL. Each well has a total volume of 100 μL. Samples are made in duplicates. Control wells include: (a) wells that receive testosterone only, and (b) wells that receive testosterone plus 2 μM of dexamethasone to provide maximum induction of aromatase. Plates are incubated at 37° C. overnight (15 to 18 hours), and supernatants are harvested at the end of incubation. […] The amount of estradiol is inversely proportional to the ELISA signals in each well. The extent of aromatase induction by test compounds is expressed as a relative percentage to dexamethasone. EC50 values of test compounds are derived by non-linear curve fitting.
2. Inhibition of IL-6 Production in Fibroblasts (Cell Assay for Transrepression)
Human foreskin fibroblast cells produce IL-6 in response to stimulation by pro-inflammatory cytokine IL-1.
On the next day, media in the wells is replaced with fresh media. Cells are treated with IL-1 (rhIL-1α, R&D Systems Cat. No. 200-LA) to a final concentration of 1 ng/mL, and with test compounds to final concentrations of 10^−5 M to 10^−8 M, in a total volume of 200 μL per well. Samples are done in duplicates. […] Positive control wells receive IL-1 only and represent maximum (or 100%) amount of IL-6 production. Plates are incubated at 37° C. overnight (15 to 18 hours), and supernatants are harvested at the end of incubation. IL-6 levels in the supernatants are determined by the ELISA kits for IL-6 (MedSystems Diagnostics GmbH, Vienna, Austria, Cat. No. BMS213TEN) according to manufacture's instructions. The extent of inhibition of IL-6 by test compounds is expressed in percentage relative to positive controls. IC50 values of test compounds are derived by non-linear curve fitting.
Evaluation of agonist or antagonist activity of compounds binding to the glucocorticoid receptor may be determined by any of the assays.
3. Modulation of Tyrosine Aminotransferase (TAT) Induction in Rat Hepatoma Cells
Testing of compounds for agonist or antagonist activity in induction of tyrosine aminotransferase (TAT) in rat hepatoma cells.
H4-II-E-C3 cells were incubated overnight in 96 well plates (20,000 cells/100 μL/well) in MEM medium containing 10% heat inactivated FBS and 1% nonessential amino acids. On the next day, cells were stimulated with the indicated concentrations of dexamethasone or test compound (dissolved in DMSO, final DMSO concentration 0.2%) for 18 hours. Control cells were treated with 0.2% DMSO. After 18 hours, the cells were lysed in a buffer containing 0.1% Triton X-100 and the TAT activity was measured in a photometric assay using tyrosine and alpha-ketoglutarate as substrates.
For measuring antagonist activity, the hepatoma cells were pre-stimulated by addition of dexamethasone (concentration ranges from 3×10^−9 M to 3×10^−8 M) shortly before the test compound was applied to the cells.
4. Modulation of MMTV-Luc Induction in HeLa Cells
Testing of compounds for agonist or antagonist activity in stimulation of MMTV-(mouse mammary tumor virus) promoter in HeLa cells.
Cells were cultured overnight in DMEM medium without phenol red, supplemented with 3% CCS (charcoal treated calf serum) and then transferred to 96 well plates (15,000 cells/100 μL/well).

Molecules are shown by their SMILES.

`CC(C)(CC(O)(Cc1ccnc2ccccc12)C(F)(F)F)c1cc(Br)cc2c1OCC2` (centres unmarked) [4-(5-Bromo-2,3-dihydrobenzofuran-7-yl)-1,1,1-trifluoro-4-methyl-2-quinolin-4-ylmethylpentan-2-ol]: the “activity in the GR binding assay” value in assay [1] was “potent activity”. Also, the “activity as agonists of the glucocorticoid receptor function in one or more of the above assays” value (“activity as agonists” for short) in the assay on glucocorticoid receptor was “potent agonists”.

For `COc1ccccc1C(C)(C)CC(O)(Cc1ccnc2ccccc12)C(F)(F)F` (centres unmarked) [1,1,1-Trifluoro-4-(2-methoxyphenyl)-4-methyl-2-quinolin-4-ylmethylpentan-2-ol], the “activity in the GR binding assay” value in assay [1] is “potent activity”. In the assay with glucocorticoid receptor, the “activity as agonists” value is given as “potent agonists”.

Take `Cc1cc(C#N)cc2[nH]c(CC(O)(CC(C)(C)c3cc(F)ccc3O)C(F)(F)F)cc12` (centres unmarked) [2-[4-(5-Fluoro-2-hydroxyphenyl)-2-hydroxy-4-methyl-2-trifluoromethylpentyl]-4-methyl-1H-indole-6-carbonitrile]: the “activity in the GR binding assay” value in assay [1] was “potent activity”. In the assay with glucocorticoid receptor, the “activity as agonists” value was “potent agonists”.

On to `COc1ccc(F)cc1C(C)(C)CC(O)(Cc1cc2ccccc2[nH]1)C(F)(F)F` (centres unmarked) [1,1,1-Trifluoro-4-(5-fluoro-2-methoxyphenyl)-2-(1H-indol-2-ylmethyl)-4-methylpentan-2-ol], for which the “activity in the GR binding assay” value in assay [1] is “potent activity”. Further, in the assay with glucocorticoid receptor, the “activity as agonists” value was “potent agonists”.

As for `COc1ccc(F)cc1C(C)(C)CC(O)(Cc1cc(Cl)nc(Cl)c1)C(F)(F)F` (centres unmarked) [2-(2,6-Dichloropyridin-4-ylmethyl)-1,1,1-trifluoro-4-(5-fluoro-2-methoxyphenyl)-4-methylpentan-2-ol], the “activity in the GR binding assay” value in assay [1] is reported as “potent activity”. Besides, the “activity as agonists” value with glucocorticoid receptor is given as “potent agonists”.

On to `COc1ccc(F)cc1C(C)(C)CC(O)(Cc1cc2cnccc2[nH]1)C(F)(F)F` (centres unmarked) [1,1,1-Trifluoro-4-(5-fluoro-2-methoxyphenyl)-4-methyl-2-(1H-pyrrolo[3,2-c]pyridin-2-ylmethyl)pentan-2-ol], for which the “activity in the GR binding assay” value in assay [1] was “potent activity”. Moreover, the “activity as agonists” value in the assay with glucocorticoid receptor is “potent agonists”.

In the case of `COc1cc(F)ccc1C(C)(C)CC(O)(Cc1cc2cc(C#N)ccc2[nH]1)C(F)(F)F` (centres unmarked) [2-[4-(4-Fluoro-2-methoxyphenyl)-2-hydroxy-4-methyl-2-trifluoromethylpentyl]-1H-indole-5-carbonitrile], in assay [1], the “activity in the GR binding assay” value is “potent activity”. Besides, the “activity as agonists” value in the assay on glucocorticoid receptor is “potent agonists”.

Consider `CC(C)(CC(O)(Cc1cc2cnccc2[nH]1)C(F)(F)F)c1cc(F)ccc1O` (centres unmarked) [4-Fluoro-2-[4,4,4-trifluoro-3-hydroxy-1,1-dimethyl-3-(1H-pyrrolo[3,2-c]pyridin-2-ylmethyl)butyl]phenol], for which the “activity in the GR binding assay” value in assay [1] was “potent activity”. The “activity as agonists” value in the assay on glucocorticoid receptor is “potent agonists”.

`Cc1cccc2[nH]c(CC(O)(CC(C)(C)c3cc(F)ccc3O)C(F)(F)F)cc12` (centres unmarked) [4-Fluoro-2-[4,4,4-trifluoro-3-hydroxy-1,1-dimethyl-3-(4-methyl-1H-indol-2-ylmethyl)butyl]phenol]: the “activity in the GR binding assay” value in assay [1] is listed as “potent activity”. Also, in the assay on glucocorticoid receptor, the “activity as agonists” value is listed as “potent agonists”.

Consider `CC(C)(CC(O)(Cc1cc2ccccc2[nH]1)C(F)(F)F)c1cccc2c1OCC2` (centres unmarked) [4-(2,3-dihydrobenzofuran-7-yl)-1,1,1-trifluoro-2-(1H-indol-2-ylmethyl)-4-methylpentan-2-ol], for which the “activity in the GR binding assay” value in assay [1] is reported as “potent activity”. The “activity as agonists” value in the assay on glucocorticoid receptor is reported as “potent agonists”.

Regarding `CC(C)(CC(O)(Cc1cc2ccccc2[nH]1)C(F)(F)F)c1cccc(C(F)(F)F)c1` (centres unmarked) [1,1,1-Trifluoro-2-(1H-indol-2-ylmethyl)-4-methyl-4-(3-trifluoromethylphenyl)pentan-2-ol], the “activity in the GR binding assay” value in assay [1] is “potent activity”. For the same compound, the “activity as agonists” value in the assay with glucocorticoid receptor is “potent agonists”.

In the case of `Cc1ccc(F)cc1C(C)(C)CC(O)(Cc1cc2c(C)cc(C#N)cc2[nH]1)C(F)(F)F` (centres unmarked) [2-[4-(5-Fluoro-2-methylphenyl)-2-hydroxy-4-methyl-2-trifluoromethylpentyl]-4-methyl-1H-indole-6-carbonitrile], the “activity in the GR binding assay” value in assay [1] was “potent activity”. In addition, the “activity as agonists” value in the assay on glucocorticoid receptor is reported as “potent agonists”.

As to `COc1ccc(F)cc1C(C)(C)CC(O)(Cc1cc2c(C)cc(C#N)cc2[nH]1)C(F)(F)F` (centres unmarked) [2-[4-(5-Fluoro-2-methoxyphenyl)-2-hydroxy-4-methyl-2-trifluoromethylpentyl]-4-methyl-1H-indole-6-carbonitrile], in assay [1], the “activity in the GR binding assay” value is on record as “potent activity”. Also, in the assay on glucocorticoid receptor, the “activity as agonists” value is “potent agonists”.

In the case of `CC(C)(CC(O)(Cc1ccnc2ccccc12)C(F)(F)F)c1ccccc1` (centres unmarked) [1,1,1-Trifluoro-4-methyl-4-phenyl-2-quinolin-4-ylmethylpentan-2-ol], the “activity in the GR binding assay” value in assay [1] is “potent activity”. Also, in the assay with glucocorticoid receptor, the “activity as agonists” value is listed as “potent agonists”.

Consider `COc1ccc(F)cc1C(C)(C)CC(O)(Cc1ccnc2cc(F)ccc12)C(F)(F)F` (centres unmarked) [1,1,1-Trifluoro-4-(5-fluoro-2-methoxyphenyl)-2-(7-fluoroquinolin-4-ylmethyl)-4-methylpentan-2-ol], for which, in assay [1], the “activity in the GR binding assay” value is reported as “potent activity”. For the same compound, in the assay on glucocorticoid receptor, the “activity as agonists” value is recorded as “potent agonists”.

On to `CC(C)(CC(O)(Cc1cc2cc(C#N)ccc2[nH]1)C(F)(F)F)c1ccccc1` (centres unmarked) [2-(2-Hydroxy-4-methyl-4-phenyl-2-trifluoromethylpentyl)-1H-indole-5-carbonitrile], for which the “activity in the GR binding assay” value in assay [1] is “potent activity”. Besides, in the assay with glucocorticoid receptor, the “activity as agonists” value is listed as “potent agonists”.

The values are drawn from patent US7553966B2, “Glucocorticoid mimetics, methods of making them, pharmaceutical compositions, and uses thereof” (Boehringer Ingelheim Pharmaceuticals, Inc., priority 2002, dated 2009).
